According to patent publication US12186286B2 (Paracelsus Neuroscience II, LLC, priority 2019, dated 2025):
“Also recorded” adds a separate entry of the source. Like-named read-outs stand apart in the source and are kept apart here.

Tests used:
human KCa3.1 = biological target: T1, human KCa3.1 (Homo sapiens, UniProt O15554); details: human KCa3.1 expressed in recombinant cells; read-out: In-vitro IC50 (nM)*; cited from earlier work
T1 construct: expressed in transfected cells

[1] = cited from earlier work; for free brain concentration / free plasma concentration / Cerebrospinal fluid (CSF) concentration: 10 mg/kg oral; for brain concentration / plasma concentration: 40 mg/kg i.p.
sickle cell disease [2] = details: Phase 3, sickle cell patients, cited from earlier work
[3] = test system: cytochrome P450-dependent enzymes; details: cited from earlier work
locomotor activity = details: rat, doses required for efficacy in the chronic constriction injury model; cited from earlier work
[4] = test system: primary rat cortical microglia; experiment: IL-1β release from primary microglia; format: cell-based
Protocol: (§1) FIG. 4A and FIG. 4B. Effect of KCa3.1 inhibition on NO and IL-1β release from primary microglia. […] (B) Primary rat cortical microglia were incubated with LPS (3 EU/ml) for 24 hours to induce expression of IL-1β.
(§2) After 24 hours, media was assayed for nitrite (stable metabolite of NO). […] Primary rat cortical microglia were also treated with LPS (3 EU/ml, 3 hours) to stimulate the production of pro-IL-1β.

[5] = clinical trials; cited from earlier work
[6] = test system: mechanical hypersensitivity induced by peripheral nerve injury; details: rat, 10, 30 and 100 mg/kg p.o., only the highest dose significant; cited from earlier work
[7] = test system: primary rat cortical microglia; experiment: NO (nitrite) release from LPS-treated primary microglia; format: cell-based; details: LPS 3 EU/ml, 24 hours
Protocol: as §1, §2

[8] = clinical trials, healthy volunteers and sickle cell patients; cited from earlier work
[9] = Pharmacokinetics and CNS penetration in mouse; format: in vivo
Protocol: Since experimental surgery-related inflammation is resolved seven days […] the animals are tested, it supported the hypothesis that the efficacy was mediated by inhibition of KCa3.1 on microglia in the spinal cord or brain rather than peripheral immune cells. […] Based on the rat and mouse pharmacokinetic data CNS penetrance in humans seems promising.

sickle cell disease [10] = details: Phase 2, 10 mg/day, sickle cell patients; cited from earlier work
[11] = test system: ~70 additional neuronal drug targets (50 neuronal receptors, 8 enzymes, 5 transporters and 7 ion channels); details: cited from earlier work
human CYP3A4 = human CYP3A4 (Homo sapiens, UniProt P08684); details: cited from earlier work
human CYP2B6 = biological target: T2, human CYP2B6 (Homo sapiens, UniProt P20813); details: cited from earlier work
T2 sequence (P20813 1-491): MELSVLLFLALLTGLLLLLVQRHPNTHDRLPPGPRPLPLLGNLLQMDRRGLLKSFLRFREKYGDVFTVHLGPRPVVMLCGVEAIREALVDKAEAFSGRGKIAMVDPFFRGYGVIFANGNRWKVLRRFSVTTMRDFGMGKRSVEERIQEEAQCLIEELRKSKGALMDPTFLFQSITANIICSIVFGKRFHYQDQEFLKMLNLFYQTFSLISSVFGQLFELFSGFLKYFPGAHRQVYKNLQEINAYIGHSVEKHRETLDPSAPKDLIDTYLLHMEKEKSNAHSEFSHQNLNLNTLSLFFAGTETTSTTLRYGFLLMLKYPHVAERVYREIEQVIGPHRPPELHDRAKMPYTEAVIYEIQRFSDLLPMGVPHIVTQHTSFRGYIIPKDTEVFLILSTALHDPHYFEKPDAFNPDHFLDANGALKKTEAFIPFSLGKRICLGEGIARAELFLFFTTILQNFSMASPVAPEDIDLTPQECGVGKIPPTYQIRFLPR

ischemic stroke = details: rat, cited from earlier work
human CYP2C19 = human CYP2C19 (Homo sapiens, UniProt P33261); details: cited from earlier work
[12] = primates; cited from earlier work
[13] = test system: non-selective cation current in primary microglia; details: primary microglia stimulated with LPC; cited from earlier work

Sequence of human CYP2C19 (P33261 whole entry): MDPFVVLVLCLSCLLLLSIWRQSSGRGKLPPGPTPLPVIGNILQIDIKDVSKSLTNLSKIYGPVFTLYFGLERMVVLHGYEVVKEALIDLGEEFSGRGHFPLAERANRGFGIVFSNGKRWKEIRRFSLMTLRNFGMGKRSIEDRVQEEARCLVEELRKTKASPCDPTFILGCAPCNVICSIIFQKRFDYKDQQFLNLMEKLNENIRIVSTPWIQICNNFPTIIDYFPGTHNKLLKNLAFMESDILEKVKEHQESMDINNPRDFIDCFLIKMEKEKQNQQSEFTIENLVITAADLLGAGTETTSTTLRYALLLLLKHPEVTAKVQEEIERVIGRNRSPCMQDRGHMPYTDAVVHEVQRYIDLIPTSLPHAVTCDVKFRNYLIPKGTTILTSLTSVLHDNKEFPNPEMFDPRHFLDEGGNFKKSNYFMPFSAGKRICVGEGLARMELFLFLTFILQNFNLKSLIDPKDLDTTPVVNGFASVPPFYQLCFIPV
Sequence of human CYP3A4 (P08684 whole entry): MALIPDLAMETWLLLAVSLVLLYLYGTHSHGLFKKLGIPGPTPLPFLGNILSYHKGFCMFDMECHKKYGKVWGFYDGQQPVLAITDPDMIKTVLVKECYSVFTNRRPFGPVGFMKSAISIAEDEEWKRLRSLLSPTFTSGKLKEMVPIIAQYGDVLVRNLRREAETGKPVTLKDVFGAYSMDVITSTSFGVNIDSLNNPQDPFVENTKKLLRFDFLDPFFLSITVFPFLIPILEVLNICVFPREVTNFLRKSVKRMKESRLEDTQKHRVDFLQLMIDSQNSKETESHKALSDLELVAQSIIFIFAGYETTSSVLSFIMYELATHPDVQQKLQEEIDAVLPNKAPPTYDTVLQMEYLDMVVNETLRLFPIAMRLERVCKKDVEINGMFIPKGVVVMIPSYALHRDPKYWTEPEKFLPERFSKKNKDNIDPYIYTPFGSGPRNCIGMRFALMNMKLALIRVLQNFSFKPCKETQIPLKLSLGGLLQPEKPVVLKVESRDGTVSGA

O=C1CSc2ccccc2N1Cc1cccc(C(F)(F)F)c1 [NS6180, 4-[[3-(trifluoromethyl)phenyl]methyl]-2H-1,4-benzothiazin-3(4H)-one]
IC50 (human KCa3.1): 9.4 nM | Cmax-Total (nM) Plasma ([1]; rat, 10 mg/kg p.o.): 186 nM | T½ ([1]; rat, 10 mg/kg p.o.): 3.8 h

NC(=O)C(c1ccccc1)(c1ccc(F)cc1)c1ccc(F)cc1 [Senicapoc, senicapoc]
pain outcome measures (vaso-occlusive / painful crises) (sickle cell disease [2]): no improvement | pain outcome measures (vaso-occlusive / painful crises) (sickle cell disease [2]; listed as senicapoc): no effect | effect on cytochrome P450-dependent enzymes [3]: does not suffer from metabolic instability or effects on cytochrome P450 | locomotor activity (locomotor activity): did not observe any significant impact; also recorded: did not alter activity | IC50 ([4]; LPS 3 EU/ml 3 hours, then BzATP 1 mM): 15 nM | IC50 ([4]; figure legend: LPS 3 EU/ml for 24 hours (n=3)): 1.3 nM | t1/2 in humans [5]: 552 h | mechanical hypersensitivity [6]: attenuated | IC50 ([7]; average): 39 nM | EC50 ([7]; representative experiment (n=3), read-out: EC50, production of NO (nitrite)): 0.9 nM | tolerability / side effects in humans [8]: without any significant side effects; also recorded: well tolerated; also recorded: safe and has a low incidence of side effects | brain versus plasma levels [9]: higher levels in brain than plasma | Cmax-Total (nM) Plasma ([9]; 10 mg/kg p.o., plasma): 709 nM | fraction unbound ([9]; brain, read-out: % unbound Brain): 0.008 | Tmax ([9]; in vivo, po, 10 mg/kg p.o.): 0.33 h | half-life ([9]; in vivo, po, 10 mg/kg p.o., read-out: T½ (converted)): 3.1 h | fraction unbound ([9]; plasma, read-out: % unbound Plasma): 0.015 | hematocrit and hemoglobin levels (sickle cell disease [10]): significantly increased | hemolysis (sickle cell disease [10]): reduced | inhibition of ~70 additional neuronal drug targets ([11]; 1 μM): None of the targets tested was inhibited | off target effects ([11]; at concentrations that block KCa3.1): no known off target effects | free brain concentration ([1]; rat, four hours post-dose): 0.136 µM | free plasma concentration ([1]; rat, four hours post-dose): 0.065 µM | Cerebrospinal fluid (CSF) concentration ([1]; rat, four hours post-dosing): 121 nM | free brain concentration ([1]; rat, one hour post-dose): 0.037 µM | free plasma concentration ([1]; rat, one hour post-dose): 0.017 µM | Cerebrospinal fluid (CSF) concentration ([1]; rat, one hour post-dosing): 25 nM | Cmax-Unbound (nM) CSF ([1]; rat, 10 mg/kg p.o., CSF): 121 nM | Cmax-Total (nM) Brain ([1]; rat, 10 mg/kg p.o.): 17,000 nM | Cmax-Unbound (nM) Brain ([1]; rat, 10 mg/kg p.o.): 136 nM | Cmax-Total (nM) Plasma ([1]; rat, 10 mg/kg p.o.): 2,400 nM | Cmax-Unbound (nM) Plasma ([1]; rat, 10 mg/kg p.o.): 65 nM | T½ ([1]; rat, 10 mg/kg p.o.): 1 h | % unbound Plasma ([1]; rat): 2.7% | blood-brain barrier crossing ([1]; rat): cross the blood-brain barrier

Clc1ccccc1C(c1ccccc1)(c1ccccc1)n1cccn1 [TRAM-34]
IC50, CYP3A4 (human CYP3A4): low micromolar range | effect on cytochrome P450-dependent enzymes [3]: no effect | IC50, CYP2B6 (human CYP2B6): low micromolar range | neuronal loss (ischemic stroke; 10 and 40 mg/kg i.p.): significantly attenuated | post stroke infarct volume (ischemic stroke; 10 and 40 mg/kg i.p.): significantly attenuated | outcome when given 12 hours after the ischemic insult (ischemic stroke; given 12 hours after insult): improved the outcome | extent of microglial ED1 staining (ischemic stroke): significantly reduced | neurological deficit score (ischemic stroke): improved | IC50, CYP2C19 (human CYP2C19): low micromolar range | Cmax-Total (nM) Brain ([1]; rat, 10 mg/kg p.o.): ~2500 nM | Cmax-Unbound (nM) Brain ([1]; rat, 10 mg/kg p.o.): 50 nM | Cmax-Total (nM) Plasma ([1]; rat, 10 mg/kg p.o.): ~2500 nM | Cmax-Unbound (nM) Plasma ([1]; rat, 10 mg/kg p.o.): 50 nM | Tmax ([1]; rat, 10 mg/kg p.o.): 0.5 to 1 h | T½ ([1]; rat, 10 mg/kg p.o.): ~2 h | brain concentration ([1]; rat, 8 hours): ~1 µM | plasma concentration ([1]; rat, 8 hours): ~1 µM | brain concentration ([1]; rat, 12 hours): 0.4 µM | plasma concentration ([1]; rat, 12 hours): 0.4 µM | % unbound Plasma ([1]; rat): 2% | % unbound in plasma ([1]; rat): approximately 2% | half-life ([1]; rats): ~2 h | half-life [12]: ~2 h

charybdotoxin
effect on LPC signals [13]: no effect
